These are literature values, as cited in patent US20040147522A1, “Compounds having both alpha7 nicotinic agonist activity and 5HT3 antagonist activity for the treatment of CNS diseases” (priority 2002, published 2004).

One series deals with T1, 5HT3R (Homo sapiens, UniProt P46098).
T1 sequence (P46098 24-478): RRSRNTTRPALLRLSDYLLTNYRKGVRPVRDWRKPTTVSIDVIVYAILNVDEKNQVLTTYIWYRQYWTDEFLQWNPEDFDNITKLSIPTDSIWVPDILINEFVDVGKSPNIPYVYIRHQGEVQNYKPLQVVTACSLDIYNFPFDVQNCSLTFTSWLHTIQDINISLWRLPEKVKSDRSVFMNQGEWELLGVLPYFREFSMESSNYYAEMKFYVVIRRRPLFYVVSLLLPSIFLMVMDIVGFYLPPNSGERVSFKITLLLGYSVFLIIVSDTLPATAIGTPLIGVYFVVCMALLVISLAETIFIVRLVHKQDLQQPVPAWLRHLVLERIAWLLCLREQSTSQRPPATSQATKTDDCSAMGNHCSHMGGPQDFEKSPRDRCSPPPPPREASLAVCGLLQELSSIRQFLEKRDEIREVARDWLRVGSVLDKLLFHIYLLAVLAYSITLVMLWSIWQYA

The target of another series is α7 nAChR (Homo sapiens, UniProt P36544).
α7 nAChR, sequence (P36544 23-502): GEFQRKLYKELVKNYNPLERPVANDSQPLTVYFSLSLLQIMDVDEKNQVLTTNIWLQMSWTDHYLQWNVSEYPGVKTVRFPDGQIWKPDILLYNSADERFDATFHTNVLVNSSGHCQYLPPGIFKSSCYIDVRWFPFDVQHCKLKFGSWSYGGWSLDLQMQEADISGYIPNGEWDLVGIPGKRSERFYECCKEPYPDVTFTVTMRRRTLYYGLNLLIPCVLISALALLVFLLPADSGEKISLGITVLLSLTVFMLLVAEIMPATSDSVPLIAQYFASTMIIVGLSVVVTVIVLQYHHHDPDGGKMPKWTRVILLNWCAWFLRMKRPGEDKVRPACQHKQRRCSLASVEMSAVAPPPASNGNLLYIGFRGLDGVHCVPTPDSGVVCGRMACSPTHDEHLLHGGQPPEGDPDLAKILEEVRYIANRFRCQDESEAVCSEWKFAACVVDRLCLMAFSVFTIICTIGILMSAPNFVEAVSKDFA

The structures appear in SMILES notation.

Regarding `COc1ccc(/C=C2\CCCN=C2c2cccnc2)c(OC)c1` [GTS-21], the “activity at the 5HT3R” value at 5HT3R is “little activity”.
On to `Cc1nccn1CC1CCc2c(c3ccccc3n2C)C1=O` (stereo not drawn) [Ondansetron], for which the “activity at the α7 nAChR” value at α7 nAChR was “little activity”.
For the molecule `CN1[C@@H]2CC[C@H]1C[C@@H](OC(=O)c1c[nH]c3ccccc13)C2` [tropesitron], at α7 nAChR (reported by Macor et al. 2001), the “α7 nicotinic agonist activity” value is recorded as “α7 nicotinic agonist activity”.
